Data published in patent publication US20150105252A1, “SUBSTITUTED PYRAZOLES AS HERBICIDES” (E I DU PONT DE NEMOURS AND COMPANY, priority 2013, published 2015).

How the values were obtained:
Assay in all cases: Test C postemergence
oat, wild = format: in vivo, Avena fatua
Outline: (§1)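 Visual control ratings on a 0–100 scale (100 = complete control) made against untreated controls after 13 to 15 days in greenhouse. Compounds applied in surfactant-containing solvent mixture, either preemergence to loam/sand-sown seeds or postemergence to 1- to 4-leaf plants (2–18 cm) in peat medium.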

galium = format: in vivo, Galium aparine
Outline: as §1

velvetleaf = format: in vivo, Abutilon theophrasti; settings: postemergence
Outline: as §1

waterhemp = format: in vivo, Amaranthus rudis; settings: postemergence, 250 g ai/ha; scale 0 to 100 (0 no effect, 100 complete control)
Outline: as §1

chickweed = format: in vivo, Stellaria media
Outline: as §1

oilseed rape = format: in vivo, Brassica napus; settings: postemergence
Outline: as §1

pigweed = format: in vivo, Amaranthus retroflexus; settings: postemergence
Outline: as §1

ryegrass, Italian = format: in vivo, Lolium multiflorum; settings: postemergence
Outline: as §1

kochia = format: in vivo, Kochia scoparia
Outline: as §1

johnsongrass = format: in vivo, Sorghum halepense
Outline: as §1

blackgrass = format: in vivo, Alopecurus myosuroides
Outline: as §1

corn = format: in vivo, Zea mays
Outline: as §1

morningglory = format: in vivo, Ipomoea coccinea
Outline: as §1

ragweed = format: in vivo, Ambrosia elation; settings: postemergence
Outline: as §1

crabgrass, large = format: in vivo, Digitaria sanguinalis
Outline: as §1

soybean = format: in vivo, Glycine max; settings: postemergence
Outline: as §1

foxtail, giant = format: in vivo, Setaria faberii
Outline: as §1

nutsedge, yellow = format: in vivo, Cyperus esculentus
Outline: as §1

[1] = Postemergence, 31 g ai/ha, visually evaluated after 13 to 15 days
[2] = postemergence, 62 g ai/ha, scale 0 to 100
[3] = postemergence, 250 g ai/ha, scale 0 to 100 (0 no effect, 100 complete control)
[4] = postemergence, 125 g ai/ha, scale 0 to 100, 0 no effect, 100 complete control
[5] = 250 g ai/ha, scale 0 to 100 (0 no effect, 100 complete control)
[6] = 125 g ai/ha, scale 0 to 100, 0 no effect, 100 complete control

CCCNC(=O)c1cc(CCC)n(Cc2cc(C(F)(F)F)nn2C)n1 [Compound 198]
Plant response rating (scale of 0 to 100 where 0 is no effect and 100 is complete control), Oat, Wild (oat, wild; [1]): 10 | Oat, Wild plant response rating (oat, wild; [2]): 10 | Plant response rating, Oat, Wild (oat, wild; [3]): 45 | Plant response rating, Oat, Wild (oat, wild; [4]): 20 | Plant response rating (scale of 0 to 100 where 0 is no effect and 100 is complete control), Galium (galium; [1]): 50 | Galium plant response rating (galium; [2]): 85 | Plant response rating, Galium (galium; [3]): 90 | Plant response rating, Galium (galium; [4]): 85 | Plant response rating, Velvetleaf (velvetleaf; [5]): 50 | Velvetleaf plant response rating (velvetleaf; scale 0 to 100): 40 | Plant response rating, Waterhemp (waterhemp): 90 | Plant response rating (scale of 0 to 100 where 0 is no effect and 100 is complete control), Chickweed (chickweed; [1]): 70 | Chickweed plant response rating (chickweed; [2]): 70 | Plant response rating, Chickweed (chickweed; [3]): 80 | Plant response rating, Chickweed (chickweed; [4]): 80 | Oilseed Rape plant response rating (oilseed rape; 62 g ai/ha, scale 0 to 100): 50 | Plant response rating, Oilseed Rape (oilseed rape; [5]): 60 | Plant response rating, Oilseed Rape (oilseed rape; [6]): 70 | Pigweed plant response rating (pigweed; 62 g ai/ha, scale 0 to 100): 60 | Plant response rating, Pigweed (pigweed; [5]): 90 | Plant response rating, Pigweed (pigweed; [6]): 80 | Plant response rating, Ryegrass, Italian (ryegrass, Italian; [5]): 5 | Plant response rating, Ryegrass, Italian (ryegrass, Italian; [6]): 5 | Plant response rating (scale of 0 to 100 where 0 is no effect and 100 is complete control), Kochia (kochia; [1]): 80 | Kochia plant response rating (kochia; [2]): 80 | Plant response rating, Kochia (kochia; [3]): 90 | Plant response rating, Kochia (kochia; [4]): 85 | Plant response rating (scale of 0 to 100 where 0 is no effect and 100 is complete control), Johnsongrass (johnsongrass; [1]): 5 | Johnsongrass plant response rating (johnsongrass; [2]): 5 | Plant response rating, Johnsongrass (johnsongrass; [3]): 10 | Plant response rating, Johnsongrass (johnsongrass; [4]): 5 | Plant response rating (scale of 0 to 100 where 0 is no effect and 100 is complete control), Blackgrass (blackgrass; [1]): 0 | Blackgrass plant response rating (blackgrass; [2]): 20 | Plant response rating, Blackgrass (blackgrass; [3]): 30 | Plant response rating, Blackgrass (blackgrass; [4]): 40 | Plant response rating (scale of 0 to 100 where 0 is no effect and 100 is complete control), Corn (corn; [1]): 5 | Corn plant response rating (corn; [2]): 10 | Plant response rating, Corn (corn; [3]): 15 | Plant response rating, Corn (corn; [4]): 10 | Plant response rating (scale of 0 to 100 where 0 is no effect and 100 is complete control), Morningglory (morningglory; [1]): 95 | Morningglory plant response rating (morningglory; [2]): 60 | Plant response rating, Morningglory (morningglory; [3]): 98 | Plant response rating, Morningglory (morningglory; [4]): 98 | Plant response rating, Ragweed (ragweed; [5]): 80 | Plant response rating, Ragweed (ragweed; [6]): 55 | Plant response rating (scale of 0 to 100 where 0 is no effect and 100 is complete control), Crabgrass, Large (crabgrass, large; [1]): 5 | Crabgrass, Large plant response rating (crabgrass, large; [2]): 5 | Plant response rating, Crabgrass, Large (crabgrass, large; [3]): 30 | Plant response rating, Crabgrass, Large (crabgrass, large; [4]): 15 | Plant response rating, Soybean (soybean; [5]): 95 | Soybean plant response rating (soybean; [6]): 95 | Plant response rating (scale of 0 to 100 where 0 is no effect and 100 is complete control), Foxtail, Giant (foxtail, giant; [1]): 10 | Foxtail, Giant plant response rating (foxtail, giant; [2]): 10 | Plant response rating, Foxtail, Giant (foxtail, giant; [3]): 55 | Plant response rating, Foxtail, Giant (foxtail, giant; [4]): 15 | Plant response rating (scale of 0 to 100 where 0 is no effect and 100 is complete control), Nutsedge, Yellow (nutsedge, yellow; [1]): 5 | Nutsedge, Yellow plant response rating (nutsedge, yellow; [2]): 10 | Plant response rating, Nutsedge, Yellow (nutsedge, yellow; [3]): 5 | Plant response rating, Nutsedge, Yellow (nutsedge, yellow; [4]): 5
